This is an account of results in patent publication US20240366587A1, “USES OF A SOMATOSTATIN MODULATOR FOR THE TREATMENT OF DISEASE” (Crinetics Pharmaceuticals, Inc., priority 2021, published 2024).

The nature of series [1]: Clinical studies: bioavailability and half-life of Compound A. The conditions noted are these: human, plasma, oral. The series is classed as in vivo. An excerpt: Compound A is a selective nonpeptide SST2 biased agonist. […] In some embodiments, Compound A is used to treat acromegaly, neuroendocrine tumors, or both. In some embodiments, Compound A is used to treat acromegaly. In some embodiments, Compound A is used to treat neuroendocrine tumors. In some embodiments, Compound A is used to treat pituitary gigantism.

The subject of another series is growth hormone (GH). Kind of series: ACROBAT Edge Phase 2 study in acromegaly: GH levels. In kind it is in vivo, human. The protocol: (§1) An open label exploratory study designed to evaluate the safety, efficacy, and pharmacokinetics of Compound A (also known as paltusotine) in subjects with acromegaly that are treated with somatostatin analogue (SSA) based treatment regimens.
(§2) 5 mg or 10 mg HMG capsule formulation. Multiple capsules were swallowed with water depending on dose specified for a given period/cohort. Enrolled patients began treatment with oral paltusotine 10 mg/day. The dose was up-titrated in a double-blind manner in 10-mg increments to a maximum 40 mg/day at weeks 4, 7 and 10 according to IGF-1 levels measured at weeks 2, 5, and 8, respectively. Up-titrations were performed if the investigator confirmed that the patient was tolerating the current dose and the unblinded central IGF-1 reader determined that IGF-1 was >0.9×ULN at week 2 and 5 or >1.0×ULN at week 8.

A further series deals with IGF-1. Kind of series: ACROBAT Advance long-term study: IGF-1. In kind it is in vivo, human. The conditions noted are these: once daily oral, 10-40 mg/day HMG capsules; interim results. The protocol:
ACROBAT Advance is an ongoing open-label, long-term (5 year) safety and efficacy study of paltusotine in patients rolling-over from the ACROBAT Evolve & Edge studies.
Eligible patients completing ACROBAT Edge and Evolve entered ACROBAT Advance either immediately on completion of a washout period in the parent study or after a gap during which they reverted to their routine standard of care treatment. Paltusotine therapy: initiated at 10 mg/day and titrated up to maximum dose of 40 mg/day based on IGF-1 and tolerability. Patients were administered 10 mg HMG capsules. Combination therapy was allowed for patients not reaching therapeutic targets with 40 mg/day of paltusotine monotherapy.
IGF-1 measured centrally with IDS-ISYS assay calibrated to WHO recombinant reference standard 02/254.

The test system of series [2] is insulin-like growth factor-1 (IGF-1). Kind of series: ACROBAT Edge Phase 2 study in acromegaly: IGF-1 levels. The series is classed as in vivo, human. The protocol: as §1, §2
Primary Outcome Measures: Change from baseline (mean of Screening values) in insulin-like growth factor-1 (IGF-1) level [Time Frame: 13 Weeks].
The primary hypothesis was that the group would show no change in the median IGF-1 at Week 13 versus baseline.

A short description of series [3]: Phase 1 single-and-multiple-dose study in healthy volunteers: oral glucose tolerance test / safety. In kind it is in vivo, human. The conditions noted are these: for glucose concentration by 2 hours post challenge / peak glucose concentration 1 hour post oral glucose challenge: one subject. As to the method:
A phase 1, randomized, double-blind, placebo-controlled, single and multiple ascending dose study was performed with oral Compound A at a single study center. Inclusion criteria included age 18 to 50 years; body mass index of 18-30 kg/m^2; and if female, postmenopausal by history or surgery. Exclusion criteria included presence of significant medical history.
In the single-dose phase, participants were randomized 6:2 to Compound A (1.25, 2.5, 5, 10, 20, 40, and 60 mg) or placebo in 7 cohorts (S1 to S7). Cohorts comparing oral bioavailability of solution versus capsules and the effect of a standardized high-fat, high-calorie breakfast on oral bioavailability of the capsule formulation employed the 10 mg dose level. In the multiple-dose phase, participants were randomized 6:3 to once-daily oral Compound A-HCl capsules or placebo at doses of 5 mg for 7 days (M1, Day Last=Day 7), and 10, 20, and 30 mg daily for 10 days (M2, M3, M4, Day Last=Day 10).
Safety assessments: Safety assessments included monitoring of clinical laboratory tests, cardiovascular safety monitoring (continuous Holter monitoring, ECG, telemetry), and physical examinations conducted at scheduled times throughout the study in the research units as well as post-discharge (up to 9 days after the single-dose, or up to 11 days after the last dose for multiple-dose cohorts). Adverse events and concomitant medications were recorded. Laboratory samples for clinical chemistry, hematology, coagulation tests, and urinalysis were collected under fasted conditions.
In the multiple-dose cohorts, baseline serum TSH, ACTH, and prolactin samples were collected on Day −2, and an oral glucose tolerance test (OGTT) was conducted on Day −7 or earlier. These assessments were repeated on Day 8 (M1) or Day 11 (M2 and subsequent cohorts).
Clinically significant hypoglycemia occurred in 1 subject in Cohort M3 (Compound A-HCl−10 days at 20 mg/day) at 2 and at 3 hours post-glucose challenge, and in 1 subject in Cohort M4 (Compound A-HCl−10 days at 30 mg/day) at 3 hours post-glucose challenge at the baseline assessment (Day −7).

For another series, the system named is subjects with acromegaly. Kind of series: ACROBAT Edge: patient reported outcomes (Acromegaly Symptom Diary, PGI-I). The series is classed as in vivo, human. As to the method:
Patients recorded daily acromegaly symptoms using a nine-item Acromegaly Symptom Diary (ASD). The ASD is a 9-item patient-reported measure of symptoms associated with acromegaly, including headache, joint pain, sweating, fatigue, leg weakness, swelling, numbness/tingling, sleep difficulties, and short-term memory difficulties. Symptoms experienced in the previous 24 hours are rated on an 11-point scale, from 0 (no symptom) to 10 (worst symptom). Patient Global Impression of Improvement (PGI-I) scale was completed at week 13 (end of treatment).

Usually bioavailability stands for dose-corrected exposure relative to a reference, in per cent. Usually half-life stands for how long it takes for the measured level to halve.

Values joined by “and” are separate entries in the source; they are usually repeats but may differ in a detail not shown here. Equal entries are not always repeated.

For the molecule `N#Cc1cccc(-c2ccc3ncc(-c4cc(F)cc(F)c4)c(N4CCC(N)CC4)c3c2)c1O` [Compound A, 3-(4-(4-amino-piperidin-1-yl)-3-(3,5-difluoro-phenyl)-quinolin-6-yl)-2-hydroxy-benzonitrile], the bioavailability in series [1] (read-out: estimated bioavailability) is about 70%. Further, the half-life in series [1] (read-out: observed half-life) was 42 to 50 h. The “change of GH levels from baseline after 13 weeks of treatment” value in the series on growth hormone (GH) (acromegaly patients previously treated with injected SRL depots) is on record as “did not significantly change from baseline levels”. Further, in the series with growth hormone (GH) (acromegaly patients, washout), the “GH after withdrawal of treatment” value is on record as “Rise in GH after withdrawal”. Besides, the “IGF-1 level on long-term treatment” value in the series on IGF-1 was “lowers and maintains IGF-1 at levels comparable to prior injected SRL therapy for up to 51 weeks”. In series [2] (acromegaly patients previously treated with injected SRL depots, 10-40 mg/day), the “change of IGF-1 levels from baseline after 13 weeks of treatment” value is recorded as “did not significantly change from baseline”. The “IGF-1 after withdrawal of treatment” value in series [2] (acromegaly patients, washout) was “Rise in IGF-1 after withdrawal (within 2 weeks)”. The “change in fasting plasma glucose” value in series [3] (healthy volunteers, multiple dosing up to 30 mg) was “not associated with significant changes in fasting plasma glucose”. For the same molecule, in series [3] (healthy volunteers, repeated daily dosing 5-30 mg, OGTT after 10 days of dosing), the “treatment emergent adverse events of hyperglycemia” value is on record as “Two TEAEs of asymptomatic hyperglycemia occurred”. The “increase from baseline in serum glucose AUC0-3 hr” value in series [3] (healthy volunteers, up to 30 mg, placebo 18%) is listed as “up to 36%”. Also, in series [3] (Cohort M2 (10 mg/day, 10 days)), the “glucose concentration by 2 hours post challenge” value is 4.3 mmol/L and 77 mg/dL; the “peak glucose concentration 1 hour post oral glucose challenge” value was 12.4 mmol/L and 223 mg/dL. In addition, in series [3] (Cohort M3 (20 mg/day, 10 days)), the “glucose concentration by 2 hours post challenge” value is 5.8 mmol/L and 104 mg/dL; the “peak glucose concentration 1 hour post oral glucose challenge” value is 12.2 mmol/L and 220 mg/dL. Also, the “change in total ASD score from Baseline to week 13/EoT, median (IQR)” value in the series with subjects with acromegaly (n=18, score range 0-70) is recorded as −0.43 (−5.0, 2.4). Also, in the series on subjects with acromegaly (week 13/EoT), the “patients "minimally improved" or "no change" on PGI-I” value was 26 (55.3%) patients and the “patients reporting worsening on PGI-I” value is “No patients reported any degree of worsening”. Further, the “patients "very much improved" or "much improved" on PGI-I” value in the series with subjects with acromegaly (week 13/EoT, compared to before the study, while treated with depot SRLs) is 11 (23.4%) patients.
